The target of the experiment is T1, NHE3 (Homo sapiens, UniProt P48764).
T1 construct: expressed in transfected cells
T1 sequence (P48764 26-834): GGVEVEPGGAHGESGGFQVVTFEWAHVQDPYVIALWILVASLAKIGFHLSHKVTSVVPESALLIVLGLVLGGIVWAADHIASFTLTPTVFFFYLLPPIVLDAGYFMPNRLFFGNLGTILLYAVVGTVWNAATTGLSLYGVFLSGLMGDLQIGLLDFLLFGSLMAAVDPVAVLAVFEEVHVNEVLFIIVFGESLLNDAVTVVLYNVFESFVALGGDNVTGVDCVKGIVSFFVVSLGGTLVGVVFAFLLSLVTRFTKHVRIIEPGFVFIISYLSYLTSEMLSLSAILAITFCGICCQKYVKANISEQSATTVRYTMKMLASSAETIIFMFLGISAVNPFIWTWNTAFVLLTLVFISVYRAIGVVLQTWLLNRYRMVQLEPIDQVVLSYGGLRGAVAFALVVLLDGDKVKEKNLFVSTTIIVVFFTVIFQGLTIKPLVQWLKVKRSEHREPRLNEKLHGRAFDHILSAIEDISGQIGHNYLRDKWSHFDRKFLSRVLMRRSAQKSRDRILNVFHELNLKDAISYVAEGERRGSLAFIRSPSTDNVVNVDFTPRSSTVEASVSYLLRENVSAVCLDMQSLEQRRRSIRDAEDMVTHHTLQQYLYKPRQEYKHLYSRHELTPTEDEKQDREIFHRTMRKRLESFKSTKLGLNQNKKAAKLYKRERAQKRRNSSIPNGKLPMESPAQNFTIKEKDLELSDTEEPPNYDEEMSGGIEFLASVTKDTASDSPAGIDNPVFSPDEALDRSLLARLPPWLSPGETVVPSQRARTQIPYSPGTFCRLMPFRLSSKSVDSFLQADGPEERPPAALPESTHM
T1 sequence (Q99653 2-195 partner limits assumed): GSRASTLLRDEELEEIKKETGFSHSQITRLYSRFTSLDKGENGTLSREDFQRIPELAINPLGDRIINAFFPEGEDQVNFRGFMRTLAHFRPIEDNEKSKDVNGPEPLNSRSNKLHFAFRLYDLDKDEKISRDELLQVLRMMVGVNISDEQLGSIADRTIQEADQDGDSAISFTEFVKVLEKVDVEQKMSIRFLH
The experiment can be described thus: persistent inhibition of NHE3 in the cell-based assay of example 181 (4-chloro vs 4-cyano pairs). The following applies: for IC50: cell-based assay of example 181, after washout, read-out: pIC50 (persistent) (converted); for Percent Inhibition: cell-based assay of example 181, persistent. The procedure:
The following pairs of compounds differ only in the 4-position substituent (either chloro (X—Cl) or cyano (X—CN)):
The ability of compounds to inhibit human and rat NHE-3-mediated Na^+ dependent H^+ antiport after application and washout was measured using a modification of the pH sensitive dye method described above. PS120 fibroblasts stably expressing human NHE3 and NHERF2 were obtained from Mark Donowitz (Baltimore, Md.). Opossum kidney (OK) cells were obtained from the ATCC and propagated per their instructions. The rat NHE-3 gene was introduced into OK cells via electroporation, and cells were seeded into 96 well plates and grown overnight. Medium was aspirated from the wells, cells were washed once with NaCl-HEPES buffer (100 mM NaCl, 50 mM HEPES, 10 mM glucose, 5 mM KCl, 2 mM CaCl2, 1 mM MgCl2, pH 7.4), then overlayed with NaCl-HEPES buffer containing 0-30 μM test compound. After a 60 min incubation at room temperature, the test drug containing buffer was aspirated from the cells. Following aspiration, cells were washed once with NaCl-HEPES buffer without drug, then incubated for 30 min at 37° C. with NH4Cl-HEPES buffer (20 mM NH4Cl, 80 mM NaCl, 50 mM HEPES, 5 mM KCl, 2 mM CaCl2, 1 mM MgCl2, pH 7.4) containing 5 μM BCECF-AM. Cells were washed once with Ammonium free, Na^+-free HEPES (100 mM choline, 50 mM HEPES, 10 mM glucose, 5 mM KCl, 2 mM CaCl2, 1 mM MgCl2, pH 7.4) and incubated in the same buffer for 10 minutes at room temperature to lower intracellular pH. NHE-3-mediated recovery of neutral intracellular pH was initiated (10 min after compound washout) by addition of Na-HEPES buffer. […] Changes in intracellular pH were monitored using a FLIPR Tetra® (Molecular Devices, Sunnyvale, Calif.) by excitation at λex 439 to 505 nm, and measuring BCECF fluorescence at λem 538 nm. The initial rate of the fluorescence ratio change was used as a measure of NHE-mediated Na^+/H^+ activity, and reported as the change in fluorescence ratio per minute.

With `CN(C)[C@@H]1CCCN([C@H]2Cc3c(Cl)cc(Cl)cc3[C@@H]2Oc2ccc(S(=O)(=O)NCCOCCOCCNC(=O)NCCCCNC(=O)NCCOCCOCCNS(=O)(=O)c3ccc(O[C@H]4c5cc(Cl)cc(Cl)c5C[C@@H]4N4CCC[C@@H](N(C)C)C4)cc3)cc2)C1` [E-Cl, 3-(2-{2-[2-(4-{[(1S,2S)-4,6-dichloro-2-[(3R)-3-(dimethylamino)piperidin-1-yl]-2,3-dihydro-1H-inden-1-yl]oxy}benzenesulfonamido)ethoxy]ethoxy}ethyl)-1-(4-{[(2-{2-[2-(4-{[(1S,2S)-4,6-dichloro-2-[(3R)-3-(dimethylamino)piperidin-1-yl]-2,3-dihydro-1H-inden-1-yl]oxy}benzenesulfonamido)ethoxy]ethoxy}ethyl)carbamoyl]amino}butyl)urea], the IC50 is 5.01 nM and the “Percent Inhibition” value is 99%.
As to `CN(C)[C@@H]1CCCN([C@H]2Cc3c(C#N)cc(Cl)cc3[C@@H]2Oc2ccc(S(=O)(=O)NCCOCCOCCNC(=O)NCCCCNC(=O)NCCOCCOCCNS(=O)(=O)c3ccc(O[C@H]4c5cc(Cl)cc(C#N)c5C[C@@H]4N4CCC[C@@H](N(C)C)C4)cc3)cc2)C1` [E-CN, 3-(2-{2-[2-(4-{[(1S,2S)-6-chloro-4-cyano-2-[(3R)-3-(dimethylamino)piperidin-1-yl]-2,3-dihydro-1H-inden-1-yl]oxy}benzenesulfonamido)ethoxy]ethoxy}ethyl)-1-(4-{[(2-{2-[2-(4-{[(1S,2S)-6-chloro-4-cyano-2-[(3R)-3-(dimethylamino)piperidin-1-yl]-2,3-dihydro-1H-inden-1-yl]oxy}benzenesulfonamido)ethoxy]ethoxy}ethyl)carbamoyl]amino}butyl)urea], the IC50 is 1.26 nM and the “Percent Inhibition” value is 36%.
With `C[C@@H]1CN([C@H]2Cc3c(Cl)cc(Cl)cc3[C@@H]2Oc2ccc(S(=O)(=O)N[C@H]3CCN(CCOCCNC(=O)NCCCCNC(=O)NCCOCCN4CC[C@H](NS(=O)(=O)c5ccc(O[C@H]6c7cc(Cl)cc(Cl)c7C[C@@H]6N6CCN[C@H](C)C6)cc5)C4)C3)cc2)CCN1` [A-Cl, 3-(2-{2-[(3S)-3-(4-{[(1S,2S)-4,6-dichloro-2-[(3R)-3-methylpiperazin-1-yl]-2,3-dihydro-1H-inden-1-yl]oxy}benzenesulfonamido)pyrrolidin-1-yl]ethoxy}ethyl)-1-(4-{[(2-{2-[(3S)-3-(4-{[(1S,2S)-4,6-dichloro-2-[(3R)-3-methylpiperazin-1-yl]-2,3-dihydro-1H-inden-1-yl]oxy}benzenesulfonamido)pyrrolidin-1-yl]ethoxy}ethyl)carbamoyl]amino}butyl)urea], the IC50 is 2.51 nM and the “Percent Inhibition” value worked out at 101%.
For the compound `C[C@@H]1CN([C@H]2Cc3c(Cl)cc(Cl)cc3[C@@H]2Oc2ccc(S(=O)(=O)N[C@H]3CCN(C(=O)CNC(=O)CNC(=O)NCCCCNC(=O)NCC(=O)NCC(=O)N4CC[C@H](NS(=O)(=O)c5ccc(O[C@H]6c7cc(Cl)cc(Cl)c7C[C@@H]6N6CCN[C@H](C)C6)cc5)C4)C3)cc2)CCN1` [B-Cl, N-{2-[(3S)-3-(4-{[(1S,2S)-4,6-dichloro-2-[(3R)-3-methylpiperazin-1-yl]-2,3-dihydro-1H-inden-1-yl]oxy}benzenesulfonamido)pyrrolidin-1-yl]-2-oxoethyl}-2-({[4-({[({2-[(3S)-3-(4-{[(1S,2S)-4,6-dichloro-2-[(3R)-3-methylpiperazin-1-yl]-2,3-dihydro-1H-inden-1H-yl]oxy}benzenesulfonamido)pyrrolidin-1-yl]-2-oxoethyl}carbamoyl)methyl]carbamoyl}amino)butyl]carbamoyl}amino)acetamide], the IC50 is 0.631 nM and the “Percent Inhibition” value is on record as 102%.
Taken in the same sequence, the figures for `C[C@@H]1CN([C@H]2Cc3c(C#N)cc(Cl)cc3[C@@H]2Oc2ccc(S(=O)(=O)N[C@@H]3CCN(CCOCCNC(=O)NCCCCNC(=O)NCCOCCN4CC[C@@H](NS(=O)(=O)c5ccc(O[C@H]6c7cc(Cl)cc(C#N)c7C[C@@H]6N6CCN[C@H](C)C6)cc5)C4)C3)cc2)CCN1` [A-CN, 3-(2-{2-[(3R)-3-(4-{[(1S,2S)-6-chloro-4-cyano-2-[(3R)-3-methylpiperazin-1-yl]-2,3-dihydro-1H-inden-1-yl]oxy}benzenesulfonamido)pyrrolidin-1-yl]ethoxy}ethyl)-1-(4-{[(2-{2-[(3R)-3-(4-{[(1S,2S)-6-chloro-4-cyano-2-[(3R)-3-methylpiperazin-1-yl]-2,3-dihydro-1H-inden-1-yl]oxy}benzenesulfonamido)pyrrolidin-1-yl]ethoxy}ethyl)carbamoyl]amino}butyl)urea] were 0.631 nM and 101%.
As to `O=C(NCCCCNC(=O)NCCOCCOCCNS(=O)(=O)c1ccc(O[C@H]2c3cc(Cl)cc(Cl)c3C[C@@H]2N2CCNCC2)cc1)NCCOCCOCCNS(=O)(=O)c1ccc(O[C@H]2c3cc(Cl)cc(Cl)c3C[C@@H]2N2CCNCC2)cc1` [G-Cl, 3-(2-{2-[2-(4-{[(1S,2S)-4,6-dichloro-2-(piperazin-1-yl)-2,3-dihydro-1H-inden-1-yl]oxy}benzenesulfonamido)ethoxy]ethoxy}ethyl)-1-(4-{[(2-{2-[2-(4-{[(1S,2S)-4,6-dichloro-2-(piperazin-1-yl)-2,3-dihydro-1H-inden-1-yl]oxy}benzenesulfonamido)ethoxy]ethoxy}ethyl)carbamoyl]amino}butyl)urea], the IC50 was 6.31 nM and the “Percent Inhibition” value is given as 82%.
Taken in the same sequence, the figures for `O=C(NCCCCNC(=O)NCCOCCN1CC[C@H](NS(=O)(=O)c2ccc(O[C@H]3c4cc(Cl)cc(Cl)c4C[C@@H]3N3CCNCC3)c(F)c2)C1)NCCOCCN1CC[C@H](NS(=O)(=O)c2ccc(O[C@H]3c4cc(Cl)cc(Cl)c4C[C@@H]3N3CCNCC3)c(F)c2)C1` [C-Cl, 3-(2-{2-[(3S)-3-(4-{[(1S,2S)-4,6-dichloro-2-(piperazin-1-yl)-2,3-dihydro-1H-inden-1-yl]oxy}-3-fluorobenzenesulfonamido)pyrrolidin-1-yl]ethoxy}ethyl)-1-(4-{[(2-{2-[(3S)-3-(4-{[(1S,2S)-4,6-dichloro-2-(piperazin-1-yl)-2,3-dihydro-1H-inden-1-yl]oxy}-3-fluorobenzenesulfonamido)pyrrolidin-1-yl]ethoxy}ethyl)carbamoyl]amino}butyl)urea] were 3.98 nM and 90%.
Take `O=C(NCCCCNC(=O)NCCOCCOCCNS(=O)(=O)c1ccc(O[C@H]2c3cc(Cl)cc(Cl)c3C[C@@H]2N2CCNCC2)c(F)c1)NCCOCCOCCNS(=O)(=O)c1ccc(O[C@H]2c3cc(Cl)cc(Cl)c3C[C@@H]2N2CCNCC2)c(F)c1` [D-Cl, 3-(2-{2-[2-(4-{[(1S,2S)-4,6-dichloro-2-(piperazin-1-yl)-2,3-dihydro-1H-inden-1-yl]oxy}-3-fluorobenzenesulfonamido)ethoxy]ethoxy}ethyl)-1-(4-{[(2-{2-[2-(4-{[(1S,2S)-4,6-dichloro-2-(piperazin-1-yl)-2,3-dihydro-1H-1-inden-1-yl]oxy}-3-fluorobenzenesulfonamido)ethoxy]ethoxy}ethyl)carbamoyl]amino}butyl)urea]: the IC50 is 3.98 nM.

These data come from patent US11242337B2, “Compounds useful for treating gastrointestinal tract disorders” (Ardelyx, Inc., priority 2017, dated 2022).
